Results: patent publication US8524726B2, “Amido derivatives and their use as positive allosteric modulators of metabotropic glutamate receptors” (Addex Pharma, SA, priority 2007, dated 2013)

What was measured:
[1] = biological target: T1, recombinant human mGluR4a receptors (Homo sapiens, UniProt Q14833); experiment: Fluorescent cell based Ca2+ mobilization assay (FLIPR) on HEK-293 cells expressing human mGluR4; conditions: HEK-293 cells expressing hmGluR4, Fluo-4, potentiation of EC25 glutamate; mean of at least three independent experiments in duplicate; read-out: Ca2+ Flux (mean EC50)
T1 construct: expressed in transfected cells
Description: mGluR4 Assay on HEK-Expressing Human mGluR4
Their activity was examined on recombinant human mGluR4a receptors by detecting changes in intracellular Ca^2+ concentration, using the fluorescent Ca^2+-sensitive dye Fluo-4-(AM) and a Fluorometric Imaging Plate Reader (FLIPR, Molecular Devices, Sunnyvale, Calif.)
Transfection and Cell Culture
The cDNA encoding the human metabotropic glutamate receptor (hmGluR4), (accession number NM_000841.1, NCBI Nucleotide database browser), was subcloned into an expression vector containing also the hygromycin resistance gene. In parallel, the cDNA encoding a G protein allowing redirection of the activation signal to intracellular calcium flux was subcloned into a different expression vector containing also the puromycin resistance gene. […] Positive cellular clones expressing hmGluR4 were identified in a functional assay measuring changes in calcium fluxes in response to glutamate or selective known mGluR4 orthosteric agonists and antagonists
HEK-293 cells expressing hmGluR4 were maintained in media containing DMEM, dialyzed Fetal Calf Serum (10%), Glutamax™ (2 mM), Penicillin (100 units/ml), Streptomycin (100 μg/ml), Geneticin (100 μg/ml) and Hygromycin-B (40 μg/ml) and puromycin (1 μg/ml) at 37° C./5% CO2.
Fluorescent Cell Based-Ca^2+ Mobilization Assay
Human mGluR4 HEK-293 cells were plated out 24 hours prior to FLIPR^384 assay in black-walled, clear-bottomed, poly-L-ornithine-coated 384-well plates at a density of 25,000 cells/well in a glutamine/glutamate free DMEM medium containing foetal bovine serum (10%), penicillin (100 units/ml) and streptomycin (100 μg/ml) at 37° C./5% CO2.
On the day of the assay, the medium was aspirated and the cells were loaded with a 3 μM solution of Fluo-4-AM (LuBioScience, Lucerne, Switzerland) in 0.03% pluronic acid. After 1 hour at 37° C./5% CO2, the non incorporated dye was removed by washing cell plate with the assay buffer and the cells were left in the dark at room temperature for six hours before testing. All assays were performed in a pH 7.4 buffered-solution containing 20 mM HEPES, 143 mM NaCl, 6 mM KCl, 1 mM MgSO4, 1 mM CaCl2, 0.125 mM sulfapyrazone, 0.1% glucose.
After 10 s of basal fluorescence recording, various concentrations of the compounds of the invention were added to the cells. Changes in fluorescence levels were first monitored for 180 s in order to detect any agonist activity of the compounds. Then the cells were stimulated by an EC25 glutamate concentration for an additional 110 s in order to measure enhancing activities of the compounds of the invention. EC25 glutamate concentration is the concentration giving 25% of the maximal glutamate response.
The concentration-response curves of representative compounds of the present invention were generated using the Prism GraphPad software (Graph Pad Inc, San Diego, USA). The curves were fitted to a four-parameter logistic equation: (Y=Bottom+(Top-Bottom)/(1+10^((Log EC50−X)*Hill Slope) allowing determination of EC50 values.

T1 sequence (Q14833 33-912): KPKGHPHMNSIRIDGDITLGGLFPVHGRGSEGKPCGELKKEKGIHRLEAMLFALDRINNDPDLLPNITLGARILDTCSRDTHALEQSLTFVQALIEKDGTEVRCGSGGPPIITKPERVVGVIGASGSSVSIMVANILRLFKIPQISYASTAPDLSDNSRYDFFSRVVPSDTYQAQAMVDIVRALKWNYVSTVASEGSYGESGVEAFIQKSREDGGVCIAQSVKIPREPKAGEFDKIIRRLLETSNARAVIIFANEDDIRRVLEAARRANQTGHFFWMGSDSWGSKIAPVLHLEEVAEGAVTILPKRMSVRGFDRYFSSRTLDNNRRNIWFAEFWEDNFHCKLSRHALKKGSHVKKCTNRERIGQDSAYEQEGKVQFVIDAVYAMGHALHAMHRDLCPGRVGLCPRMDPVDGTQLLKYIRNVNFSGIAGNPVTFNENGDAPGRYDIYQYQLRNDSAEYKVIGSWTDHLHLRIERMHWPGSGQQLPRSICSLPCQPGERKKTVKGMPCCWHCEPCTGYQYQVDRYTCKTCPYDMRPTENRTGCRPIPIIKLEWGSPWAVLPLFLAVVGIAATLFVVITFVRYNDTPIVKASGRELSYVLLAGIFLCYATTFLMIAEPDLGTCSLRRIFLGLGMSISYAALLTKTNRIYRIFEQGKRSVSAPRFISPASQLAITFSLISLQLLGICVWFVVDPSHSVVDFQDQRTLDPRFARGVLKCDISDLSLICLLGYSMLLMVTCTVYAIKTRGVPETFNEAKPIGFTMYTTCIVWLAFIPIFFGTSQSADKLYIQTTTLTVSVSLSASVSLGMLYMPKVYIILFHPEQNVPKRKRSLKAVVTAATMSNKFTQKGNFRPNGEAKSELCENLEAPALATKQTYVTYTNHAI

| SMILES | melting point [°C] | EC50 [1] [nM] |
| --- | --- | --- |
| O=C(Nc1cccc(Cl)c1)c1cccs1 [Compound 1-2, N-(3-Chlorophenyl)thiophene-2-carboxamide] | 139 to 140 | 1000 to 10000 |
| O=C(Nc1cccc(Cl)c1)c1ccccn1 [Compound 1-3, N-(3-Chlorophenyl)picolinamide] | – | < 1000 |
| O=C(Nc1cccc(F)c1)c1ccccn1 [Compound 1-4, N-(3-Fluorophenyl)picolinamide] | 74 to 75 | – |
| O=C(Nc1cccc(Cl)c1)c1ccc[nH]1 [Compound 1-5, N-(3-Chlorophenyl)-1H-pyrrole-2-carboxamide] | 138 to 140 | 1000 to 10000 |
| O=C(COc1cccc(NC(=O)c2ccco2)c1)c1ccc(F)cc1 [Compound 2-2, Furan-2-carboxylic acid {3-[2-(4-fluoro-phenyl)-2-oxo-ethoxy]-phenyl}-amide] | 148 to 149 | – |
| COc1cccc(NC(=O)c2csc(C)n2)c1 [Compound 2-4, N-(3-Methoxyphenyl)-2-methylthiazole-4-carboxamide] | 87 to 89 | 1000 to 10000 |
| COc1cccc(NC(=O)c2nccs2)c1 [Compound 2-5, N-(3-Methoxyphenyl)thiazole-2-carboxamide] | 53 to 57 | 1000 to 10000 |
| O=C(COc1cccc(NC(=O)c2ccccn2)c1)c1cccc(Cl)c1 [Compound 2-7, N-(3-(2-(3-Chlorophenyl)-2-oxoethoxy)phenyl)picolinamide] | 139 to 140 | 1000 to 10000 |
| O=C(Nc1cccc(OCCCc2ccccc2)c1)c1ccccn1 [Compound 2-8, N-(3-(3-Phenylpropoxy)phenyl)picolinamide] | 49 to 51 | 1000 to 10000 |
| COc1ccccc1C(=O)COc1cccc(NC(=O)c2ccccn2)c1 [Compound 2-9, N-(3-(2-(2-Methoxyphenyl)-2-oxoethoxy)phenyl)picolinamide] | 136 to 137 | 1000 to 10000 |
| COc1cccc(C(=O)COc2cccc(NC(=O)c3ccccn3)c2)c1 [Compound 2-10, N-(3-(2-(3-Methoxyphenyl)-2-oxoethoxy)phenyl)picolinamide] | 114.5 to 115.5 | 1000 to 10000 |
| O=C(COc1cccc(NC(=O)c2ccccn2)c1)c1cccc(F)c1 [Compound 2-11, N-(3-(2-(3-Fluorophenyl)-2-oxoethoxy)phenyl)picolinamide] | 118 to 121 | 1000 to 10000 |
| O=C(Nc1cccc(OCC(=O)c2ccccc2Cl)c1)c1ccccn1 [Compound 2-12, N-(3-(2-(2-Chlorophenyl)-2-oxoethoxy)phenyl)picolinamide] | – | 1000 to 10000 |
| COc1cccc(NC(=O)c2cc(C)on2)c1 [Compound 2-13, N-(3-Methoxyphenyl)-5-methylisoxazole-3-carboxamide] | 98 to 101 | 1000 to 10000 |
| COc1cc(NC(=O)c2ccccn2)ccc1F [Compound 2-14, N-(4-Fluoro-3-methoxyphenyl)picolinamide] | – | < 1000 |
| O=C(Nc1cccc(OCC(=O)c2ccccc2F)c1)c1ccccn1 [Compound 2-15, N-(3-(2-(2-Fluorophenyl)-2-oxoethoxy)phenyl)picolinamide] | 98 to 101 | 1000 to 10000 |
| COc1cccc(NC(=O)c2ccncn2)c1 [Compound 2-16, N-(3-Methoxyphenyl)pyrimidine-4-carboxamide] | 119 to 122 | 1000 to 10000 |

| SMILES | melting point [°C] | EC50 [1] [nM] |
| --- | --- | --- |
| COc1cc(NC(=O)c2cccc(F)n2)ccc1F [Compound 2-17, 6-Fluoro-N-(4-fluoro-3-methoxyphenyl)picolinamide] | 124 to 125 | 1000 to 10000 |
| COc1cc(NC(=O)c2nccs2)ccc1F [Compound 2-18, N-(4-Fluoro-3-methoxyphenyl)thiazole-2-carboxamide] | 103 to 105 | 1000 to 10000 |
| O=C(Nc1ccc(Oc2ncccn2)c(Cl)c1)c1ccccn1 [Compound 3-2, N-(3-Chloro-4-(pyrimidin-2-yloxy)phenyl)picolinamide] | 195 to 197 | < 1000 |
| Cc1nc(C(=O)Nc2ccc(Oc3ncccn3)c(Cl)c2)cs1 [Compound 3-3, N-(3-Chloro-4-(pyrimidin-2-yloxy)phenyl)-2-methylthiazole-4-carboxamide] | 142 to 150 | – |
| O=C(Nc1ccc(Oc2ncccn2)c(Cl)c1)c1nccs1 [Compound 3-4, N-(3-Chloro-4-(pyrimidin-2-yloxy)phenyl)thiazole-2-carboxamide] | 154 | 1000 to 10000 |
| O=C(Nc1ccc(Oc2ccccn2)c(Cl)c1)c1ccccn1 [Compound 3-5, N-(3-Chloro-4-(pyridin-2-yloxy)phenyl)picolinamide] | 254 to 260 | < 1000 |
| O=C(Nc1ccc(Oc2cc(F)ccc2F)c(Cl)c1)c1ccccn1 [Compound 3-6, N-(3-Chloro-4-(2,5-difluorophenoxy)phenyl)picolinamide] | 102 to 104 | – |
| O=C(Nc1ccc(Oc2ccc(C(F)(F)F)cn2)c(Cl)c1)c1ccccn1 [Compound 3-8, N-(3-Chloro-4-(5-(trifluoromethyl)pyridin-2-yloxy)phenyl)picolinamide] | 92 to 94 | 1000 to 10000 |
| COc1cc(NC(=O)c2ccccn2)ccc1Oc1ncccn1 [Compound 3-9, N-(3-Methoxy-4-(pyrimidin-2-yloxy)phenyl)picolinamide] | 203 to 205 | – |
| O=C(Nc1ccc(Oc2cccc(F)c2)c(Cl)c1)c1ccccn1 [Compound 3-12, N-(3-Chloro-4-(3-fluorophenoxy)phenyl)picolinamide] | 78 to 80 | – |
| O=C(Nc1ccc(Oc2ccc(F)cc2)c(Cl)c1)c1ccccn1 [Compound 3-13, N-(3-Chloro-4-(4-fluorophenoxy)phenyl)picolinamide] | 104 to 105 | – |
| N#Cc1ccc(Oc2ccc(NC(=O)c3ccccn3)cc2Cl)cc1 [Compound 3-15, N-(3-Chloro-4-(4-cyanophenoxy)phenyl)picolinamide] | 157 to 159 | < 1000 |
| N#Cc1cccnc1Oc1ccc(NC(=O)c2ccccn2)cc1Cl [Compound 3-16, N-(3-Chloro-4-(3-cyanopyridin-2-yloxy)phenyl)picolinamide] | 223 to 228 | – |
| CC(C)C(=O)N1CCN(c2ccc(NC(=O)c3ccccn3)cc2Cl)CC1 [Compound 4-2, N-(3-Chloro-4-(4-isobutyrylpiperazin-1-yl)phenyl)picolinamide] | 156 to 158 | – |
| CCC(=O)N1CCN(c2ccc(NC(=O)c3ccccn3)cc2Cl)CC1 [Compound 4-3, N-(3-Chloro-4-(4-propionylpiperazin-1-yl)phenyl)picolinamide] | 176 to 179 | 1000 to 10000 |
| O=C(Nc1ccc(N2CCN(C(=O)c3ccccc3)CC2)c(Cl)c1)c1ccccn1 [Compound 4-4, N-(4-(4-Benzoylpiperazin-1-yl)-3-chlorophenyl)picolinamide] | 161 to 163 | 1000 to 10000 |
| O=C(Nc1ccc(N2CCN(Cc3ccccc3)CC2)c(Cl)c1)c1ccccn1 [Compound 4-5, N-(4-(4-Benzylpiperazin-1-yl)-3-chlorophenyl)picolinamide] | 92 to 94 | 1000 to 10000 |
